Measurements: BindingDB's records for doi:10.1021/jm401195n (Fudan University, 2013)

Biological target: Indoleamine 2,3-dioxygenase 1 (Homo sapiens, UniProt P14902)
Assay: Inhibition of human IDO1 expressed in HEK293 cells assessed as kynurenine release after 5 hrs by spectrophotometry

Indoleamine 2,3-dioxygenase 1, sequence (P14902 whole entry): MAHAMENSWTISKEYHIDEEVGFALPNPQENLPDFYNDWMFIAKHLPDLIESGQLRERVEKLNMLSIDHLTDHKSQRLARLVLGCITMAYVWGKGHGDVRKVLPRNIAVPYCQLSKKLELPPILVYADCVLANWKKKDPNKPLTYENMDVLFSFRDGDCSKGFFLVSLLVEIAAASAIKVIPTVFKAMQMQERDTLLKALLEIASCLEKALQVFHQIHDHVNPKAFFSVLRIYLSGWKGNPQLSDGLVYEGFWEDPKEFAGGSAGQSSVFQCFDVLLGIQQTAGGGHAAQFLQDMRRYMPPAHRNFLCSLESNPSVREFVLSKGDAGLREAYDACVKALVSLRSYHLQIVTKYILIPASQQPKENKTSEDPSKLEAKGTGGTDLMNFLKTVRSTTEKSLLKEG

- IC50: 0.018 nM
SMILES: O=C1c2cc([N+](=O)[O-])ccc2-n2c1nc1ccccc1c2=O
